In patent US20240271213A1, “METHODS AND COMPOSITIONS COMPRISING FUNCTIONAL GENOMICS OF HIBERNATING MAMMALS” (Fauna Bio Incorporated, priority 2021, published 2024):

Assays:
SH-SY5Y cells = experiment: Aβ1-42 induced toxicity in SH-SY5Y cells, viability by MTT; type: cell-based, human; details: Aβ1-42 peptide added, vs vehicle control
Description: Alzheimer's disease progression features the accumulation of two protein aggregates: β-amyloid (Aβ) and tau; these play crucial roles in neuronal loss or dysfunction in Alzheimer's disease. To mimic pathogenesis of Alzheimer's disease, we used in vitro cell models that focus on Aβ-induced toxicity and tau hyperphosphorylation. SH-SY5Y human neuroblastoma cells (American Type Culture Collection; ATCC) were purchased and grown in appropriate culture medium. First, OE/KD and WT SH-SY5Y cells were equally seeded in wells of 96-well plates. Human SH-SY5Y neuroblastoma cells were successfully differentiated into mature neurons by incubating cells in retinoic acid and N2 supplement for 9 days (FIG. 16). These can be distinguished from the original SH-SY5Y cells, which are prone to grow in clusters and extend short neurites at edges of the clusters. […] Aβ-induced toxicity was examined by adding Aβ1-42 peptide to both WT and OE/KD cells. Aβ1-42 induced cell death in WT cells. […] To validate potential neuroprotective compounds identified by the integrated gene networks described above, in vitro assays were conducted with SH-SY5Y cells. Aβ-induced toxicity was examined by adding Aβ1-42 peptide to cells treated with vehicle control or test compounds (FIG. 19). […] Tau hyperphosphorylation was also examined, by exposing the SH-SY5Y cells to hypothermic conditions (30° C.).

AC16 cells [1] = experiment: Ischemia-reperfusion assay in AC16 cells, cell damage (LDH activity); type: cell-based, human; details: 16 hours ischemia, 4 hours reperfusion, compound added prior to ischemia
Protocol: FIG. 18B is a graph showing a decrease in cell damage response (LDH activity) of AC16 cells following 16 hrs ischemia and 4 hrs reperfusion and incubated with different concentrations of Triptolide.
(§1) For ischemia-reperfusion assays, de-oxygenated serum free medium was prepared by adding 1% penicillin-streptomycin into glucose-free DMEM; the medium was contacted for 5 mins with 5% CO2 and 95% N2; and the medium was then warmed in a 37° C. bath. Cells were then washed with warm PBS to completely remove normal culture medium. PBS was aspirated and deoxygenated serum free medium was added into plates (100 μl was added for each well of 96-well plate). To mimic myocardial ischemia, cells in the experiment plate were subjected to ischemia by culturing them in glucose and serum free-medium and hypoxic conditions (5% CO2 and 95% N2). Plates were placed in a hypoxia chamber and air-tight lock; the chamber was filled with 5% CO2 and 95% N2 until oxygen level is 0%, and then the chamber was placed in the incubator for a duration of ischemia time. The duration of ischemia was 21 hours for H9C2 cells; 29 hours for differentiated SH-SY5Y cells; 16 hours for AC16 cells; and 16 hours for native SH-SY5Y cells. […] Cell viability was determined by MTT assay The control cells were considered to be 100% viable; changes in viability in the experiment plates were measured relative to the control. […]

AC16 cells [2] = experiment: Ischemia-reperfusion assay in AC16 cells, cell viability; type: cell-based, human; details: 16 hours ischemia, 4 hours reperfusion, compound added prior to ischemia
Protocol: FIG. 18A is a graph showing in vitro cell viability of AC16 cells following 16 hrs ischemia and 4 hrs reperfusion and incubated with different concentrations of a compound identified for neuroprotection, Triptolide.
as §1, with “time.” for “time. The duration of ischemia was 21 hours for H9C2 cells; 29 hours for differentiated SH-SY5Y cells; 16 hours for AC16 cells; and 16 hours for native SH-SY5Y cells.”

AC16 cells [3] = experiment: Reactive oxygen species (ROS) production in AC16 cells; type: cell-based, human; details: AC16 cells following incubation with compound
H9C2 cells = experiment: Ischemia-reperfusion assay in H9C2 cells, viability by MTT; type: cell-based, rat; details: melatonin added at start of ischemia, control wells ~75% viable, normoxic control = 100%
Protocol: FIG. 17 is a graph illustrating results of an in vitro validation assay for ischemia-reperfusion injury in H9C2 cells. H9C2 cells were exposed to ischemia for […] and reperfusion for 4 hrs were contacted with differing concentrations of melatonin at the start of ischemia. Viability was measured using the MTT assay. Data are expressed as the mean +/− standard deviation in experiments performed in triplicate. * p<0.05 and ** […] compared to vehicle control.
as §1, with “N2).” for “N2). Plates were placed in a hypoxia chamber and air-tight lock; the chamber was filled with 5% CO2 and 95% N2 until oxygen level is 0%, and then the chamber was placed in the incubator for a duration of ischemia time. The duration of ischemia was 21 hours for H9C2 cells; 29 hours for differentiated SH-SY5Y cells; 16 hours for AC16 cells; and 16 hours for native SH-SY5Y cells.”

## CC12CC3CC(C)(C1)CC(N)(C3)C2 [Memantine]
SH-SY5Y cells
  cell viability under Aβ1-42 toxicity (MTT): increase in cell viability

## CC(C)[C@]12O[C@H]1[C@@H]1O[C@]13[C@]1(O[C@H]1C[C@H]1C4=C(CC[C@@]13C)C(=O)OC4)[C@@H]2O [Triptolide]
AC16 cells [1]
  cell damage (LDH activity) after ischemia-reperfusion: reduced cell damage
AC16 cells [2]
  cell viability after ischemia-reperfusion: increased cell viability
AC16 cells [3]
  production of reactive oxygen species (ROS): decrease production of reactive oxygen species (ROS)

## COc1ccc2[nH]cc(CCNC(C)=O)c2c1 [melatonin]
H9C2 cells
  viable cells after ischemia-reperfusion (MTT): ~90%
